Assay: accelerated degradation studies (chemical stability, purity by HPLC)
Assay type: physicochemical
From the text: Crystalline particles of Form S of the compound of formula (I) were obtained using the methods described in Example 5 above. Crystalline particles of Form A were also obtained, using the ethyl acetate-heptane crystallization system described in WO2010/071583. Samples of Form A and Form S were subject to accelerated degradation studies. Samples of each crystalline form were stored at varying combinations of temperature and relative humidity and analysed for purity by HPLC at 0, 14 and 28 days.

[1] = 60 °C, 30% relative humidity, Day 0
[2] = 60 °C, 30% relative humidity, Day 14
[3] = 60 °C, 30% relative humidity, Day 28
[4] = 60 °C, 75% relative humidity, Day 0
[5] = 60 °C, 75% relative humidity, Day 14
[6] = 60 °C, 75% relative humidity, Day 28
[7] = 70 °C, 11% relative humidity, Day 0
[8] = 70 °C, 11% relative humidity, Day 14
[9] = 70 °C, 11% relative humidity, Day 28
[10] = 70 °C, 75% relative humidity, Day 0
[11] = 70 °C, 75% relative humidity, Day 14
[12] = 70 °C, 75% relative humidity, Day 28
[13] = 80 °C, 30% relative humidity, Day 0
[14] = 80 °C, 30% relative humidity, Day 14
[15] = 80 °C, 30% relative humidity, Day 28

| SMILES | Purity by HPLC [1] [%] | Purity by HPLC [2] [%] | Purity by HPLC [3] [%] | Purity by HPLC [4] [%] | Purity by HPLC [5] [%] | Purity by HPLC [6] [%] | Purity by HPLC [7] [%] | Purity by HPLC [8] [%] | Purity by HPLC [9] [%] | Purity by HPLC [10] [%] | Purity by HPLC [11] [%] | Purity by HPLC [12] [%] | Purity by HPLC [13] [%] | Purity by HPLC [14] [%] | Purity by HPLC [15] [%] | degradation in accelerated degradation studies (under all the conditions that the samples were exposed to, Form S compared with Form A) |
| --- | --- | --- | --- | --- | --- | --- | --- | --- | --- | --- | --- | --- | --- | --- | --- | --- |
| CNCCOc1ccccc1C1(Nc2nccn(-c3cc(C(=O)NC4CC4)cc(F)c3C)c2=O)CC1 [Form A, N-cyclopropyl-3-fluoro-4-methyl-5-[3-[[1-[2-[2-(methylamino)ethoxy]phenyl]cyclopropyl]amino]-2-oxo-pyrazin-1-yl]benzamide, reference compound] | 99.43 | 99.41 | 99.39 | 99.43 | 99.20 | 99.21 | 99.43 | 99.33 | 99.33 | 99.43 | 98.78 | 98.76 | 99.43 | 99.40 | 99.36 |  |
| CNCCOc1ccccc1C1(Nc2nccn(-c3cc(C(=O)NC4CC4)cc(F)c3C)c2=O)CC1 [Form S, N-cyclopropyl-3-fluoro-4-methyl-5-[3-[[1-[2-[2-(methylamino)ethoxy]phenyl]cyclopropyl]amino]-2-oxo-pyrazin-1-yl]benzamide] | 99.77 | 99.77 | 99.77 | 99.77 | 99.64 | 99.63 | 99.77 | 99.77 | 99.77 | 99.77 | 99.77 | 99.77 | 99.77 | 99.77 | 99.78 | significantly less degradation than Form A |

— patent US20190100498A1, “CRYSTALLINE FORM” (AstraZeneca AB, priority 2016, published 2019)
